Assay results published in patent US20230143604A1, “QW DOSING OF GIP RECEPTOR AGONIST PEPTIDE COMPOUNDS AND USES THEREOF” (TAKEDA PHARMACEUTICAL COMPANY LIMITED, priority 2020, published 2023).
Numbering of substitutions follows the chain as printed. Starred links: 1 amine or outer side, 2 acyl side, 3 side chain; linkers in the order of their positions; H or OH if unused. Positions of bridges follow the written chain, without caps; N, C: chain ends. Non-standard residues stand in square brackets, D forms with d. Residues, ends and D or L forms follow the SMILES beside them. Groups on a side chain read outwards from the residue. Chains are numbered I, II in the order given. No end group written: not given here. *: point of attachment. C18 diacid = O=C(O)CCCCCCCCCCCCCCCCC(=O)*; γGlu = O=C(O)[C@H](CCC(=O)[*:2])N[*:1]; NMeY = CN[C@@H](Cc1ccc(O)cc1)C(=O)O; AEEA = NCCOCCOCC(=O)O; Aib = CC(C)(N)C(=O)O

T1: full-length human GIPR with an N-terminal FLAG tag (human, UniProt P48546 22-466)
T1 sequence (looked up): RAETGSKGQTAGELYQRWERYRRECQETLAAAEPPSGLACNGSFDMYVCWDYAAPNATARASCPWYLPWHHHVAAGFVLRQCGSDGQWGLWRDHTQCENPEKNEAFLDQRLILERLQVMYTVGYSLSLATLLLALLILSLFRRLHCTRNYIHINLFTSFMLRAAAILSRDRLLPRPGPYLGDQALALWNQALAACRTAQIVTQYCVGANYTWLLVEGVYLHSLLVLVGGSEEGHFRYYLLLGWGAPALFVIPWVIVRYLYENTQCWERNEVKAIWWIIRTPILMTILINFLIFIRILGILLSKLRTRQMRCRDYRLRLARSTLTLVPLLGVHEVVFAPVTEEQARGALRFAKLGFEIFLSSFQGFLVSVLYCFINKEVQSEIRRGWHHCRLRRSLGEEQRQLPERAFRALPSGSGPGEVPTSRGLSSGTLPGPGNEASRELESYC

B1: Compound No. 4 (peptide)
peptide: [NMeY][Aib]EGTFISDYSIALDRK(2OEGgE‑C18 diacid)HQQNFVNWLLAQRPSSGAPPPS-NH2
B2: Compound No. 54 (peptide)
peptide: YXEGTFISDYSIXXDRXAQXDFVNWLLAQRPSSGAPPPS
modifications: N-methyl Tyr 1; Aib at 2,13,17,20; Lys(G5-C18 diacid) at 14; C-terminal OH
B3: Compound No. 40 (peptide)
peptide: B2 peptide with X13A, D21N, R30S
modifications: N-methyl Tyr 1; Aib at 2,17,20; Lys(G5-C20 diacid) at 14; C-terminal OH
B4: Compound No. 112 (peptide)
peptide: B2 peptide with X13A, D21N, R30S
modifications: N-methyl Tyr 1; Aib at 2,17,20; Lys(G5-C20 diacid) at 14; C-terminal OH
B5: Compound No. 53 (peptide)
peptide: YXEGTFISDYSIXXDRXAQXDFVNWLLAQSG
modifications: N-methyl Tyr 1; Aib at 2,13,17,20; Lys(G5-C18 diacid) at 14; C-terminal OH

Legend:
physchem = assay: physchem
Outline: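 Solubility at pH 7.4 determined by stepwise addition of 200 mM phosphate buffer in 100 μL increments to 3 mg peptide, mixing briefly each time, until no insoluble material remained, then measured by liquid chromatography.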

[1] = target: T1, full-length human GIPR with an …; assay: cell-based or functional assay
[2] = target: full-length human GLP-1R with an N-terminal FLAG tag (human, UniProt P43220 24-463); assay: cell-based or functional assay
[3] = pH 7.4, aqueous buffer, pH 7.4 Phosphate Buffer - Solubility, 200 mM Phosphate buffer pH 7.4
[4] = pH 7.4, solubility in phosphate buffer at pH 7.4, 200 mM phosphate buffer pH 7.4

Row | Molecule | solubility (physchem; pH 7.4, aqueous buffer) | Human GIPR cAMP EC50, HEK293T [1] | further results
1 | CC[C@H](C)[C@H](NC(=O)[C@H](CO)NC(=O)[C@H](Cc1ccc(O)cc1)NC(=O)[C@H](CC(=O)O)NC(=O)[C@H](CO)NC(=O)[C@@H](NC(=O)[C@H](Cc1ccccc1)NC(=O)[C@@H](NC(=O)CNC(=O)[C@H](CCC(=O)O)NC(=O)C(C)(C)NC(=O)[C@H](Cc1ccc(O)cc1)NC)[C@@H](C)O)[C@@H](C)CC)C(=O)N[C@@H](C)C(=O)N[C@@H](CC(C)C)C(=O)N[C@@H](CC(=O)O)C(=O)N[C@@H](CCCNC(=N)N)C(=O)N[C@H](C(=O)N[C@@H](CCCCNC(=O)COCCOCCNC(=O)COCCOCCNC(=O)CC[C@H](NC(=O)CC[C@H](NC(=O)CCCCCCCCCCCCCCCCC(=O)O)C(=O)O)C(=O)O)C(=O)N[C@@H](CCC(N)=O)C(=O)N[C@@H](CCC(N)=O)C(=O)N[C@@H](CC(=O)O)C(=O)N[C@@H](Cc1ccccc1)C(=O)N[C@H](C(=O)N[C@@H](CC(N)=O)C(=O)N[C@@H](Cc1c[nH]c2ccccc12)C(=O)N[C@@H](CC(C)C)C(=O)N[C@@H](CC(C)C)C(=O)N[C@@H](C)C(=O)N[C@@H](CCC(N)=O)C(=O)N[C@@H](CCCNC(=N)N)C(=O)N1CCC[C@H]1C(=O)N[C@@H](CO)C(=O)N[C@@H](CO)C(=O)NCC(=O)O)C(C)C)[C@@H](C)CC [Compound 287] (H-[NMeY][Aib]EGTFISDYSIALDRIK([AEEA-AEEA-γGlu-γGlu-C18 diacid])QQDFVNWLLAQRPSSG-OH) | < 6000 µg/mL |  | 
2 | CC[C@H](C)[C@H](NC(=O)[C@H](CO)NC(=O)[C@H](Cc1ccc(O)cc1)NC(=O)[C@H](CC(=O)O)NC(=O)[C@H](CO)NC(=O)[C@@H](NC(=O)[C@H](Cc1ccccc1)NC(=O)[C@@H](NC(=O)CNC(=O)[C@H](CCC(=O)O)NC(=O)C(C)(C)NC(=O)[C@H](Cc1ccc(O)cc1)NC)[C@@H](C)O)[C@@H](C)CC)C(=O)N[C@@H](C)C(=O)N[C@@H](CC(C)C)C(=O)N[C@@H](CC(=O)O)C(=O)N[C@@H](CCCNC(=N)N)C(=O)N[C@@H](CCCCNC(=O)CNC(=O)CNC(=O)CNC(=O)CNC(=O)CNC(=O)CCCCCCCCCCCCCCCCC(=O)O)C(=O)N[C@@H](C)C(=O)N[C@@H](CCC(N)=O)C(=O)N[C@@H](CCC(N)=O)C(=O)N[C@@H](CC(=O)O)C(=O)N[C@@H](Cc1ccccc1)C(=O)N[C@H](C(=O)N[C@@H](CC(N)=O)C(=O)N[C@@H](Cc1c[nH]c2ccccc12)C(=O)N[C@@H](CC(C)C)C(=O)N[C@@H](CC(C)C)C(=O)N[C@@H](C)C(=O)N[C@@H](CCC(N)=O)C(=O)N[C@@H](CCCNC(=N)N)C(=O)N1CCC[C@H]1C(=O)N[C@@H](CO)C(=O)N[C@@H](CO)C(=O)NCC(=O)O)C(C)C [Compound 288] | < 6000 µg/mL |  | 
3 | CC[C@H](C)[C@H](NC(=O)[C@H](CO)NC(=O)[C@H](Cc1ccc(O)cc1)NC(=O)[C@H](CC(=O)O)NC(=O)[C@H](CO)NC(=O)[C@@H](NC(=O)[C@H](Cc1ccccc1)NC(=O)[C@@H](NC(=O)CNC(=O)[C@H](CCC(=O)O)NC(=O)C(C)(C)NC(=O)[C@H](Cc1ccc(O)cc1)NC)[C@@H](C)O)[C@@H](C)CC)C(=O)N[C@@H](C)C(=O)N[C@@H](CCCCNC(=O)CNC(=O)CNC(=O)[C@@H]1CCCN1C(=O)[C@H](C)NC(=O)[C@@H]1CCCN1C(=O)[C@H](C)NC(=O)[C@@H]1CCCN1C(=O)CCCCCCCCCCCCCCCCC(=O)O)C(=O)N[C@@H](CC(=O)O)C(=O)N[C@@H](CCCNC(=N)N)C(=O)NC(C)(C)C(=O)N[C@@H](C)C(=O)N[C@@H](CCC(N)=O)C(=O)NC(C)(C)C(=O)N[C@@H](CC(=O)O)C(=O)N[C@@H](Cc1ccccc1)C(=O)N[C@H](C(=O)N[C@@H](CC(N)=O)C(=O)N[C@@H](Cc1c[nH]c2ccccc12)C(=O)N[C@@H](CC(C)C)C(=O)N[C@@H](CC(C)C)C(=O)N[C@@H](C)C(=O)N[C@@H](CCC(N)=O)C(=O)N[C@@H](CCCCN)C(=O)NCC(=O)O)C(C)C [Compound 289] (I: H-[NMeY][Aib]EGTFISDYSIAKDR[Aib]AQ[Aib]DFVNWLLAQKG-OH / II: {C18 diacid}-PAPAPGG; amide I:14-II:C) | ≥ 10000 µg/mL |  | 
4 | CC[C@H](C)[C@H](NC(=O)[C@H](CO)NC(=O)[C@H](Cc1ccc(O)cc1)NC(=O)[C@H](CC(=O)O)NC(=O)[C@H](CO)NC(=O)[C@@H](NC(=O)[C@H](Cc1ccccc1)NC(=O)[C@@H](NC(=O)CNC(=O)[C@H](CCC(=O)O)NC(=O)C(C)(C)NC(=O)[C@H](Cc1ccc(O)cc1)NC)[C@@H](C)O)[C@@H](C)CC)C(=O)N[C@@H](C)C(=O)N[C@@H](CC(C)C)C(=O)N[C@@H](CC(=O)O)C(=O)N[C@@H](CCCNC(=N)N)C(=O)N[C@@H](CCCCNC(=O)CNC(=O)CNC(=O)CNC(=O)CNC(=O)CNC(=O)CCCCCCCCCCCCCCCCC(=O)O)C(=O)N[C@@H](C)C(=O)N[C@@H](CCC(N)=O)C(=O)NC(C)(C)C(=O)N[C@@H](CC(N)=O)C(=O)N[C@@H](Cc1ccccc1)C(=O)N[C@H](C(=O)N[C@@H](CC(N)=O)C(=O)N[C@@H](Cc1c[nH]c2ccccc12)C(=O)N[C@@H](CC(C)C)C(=O)N[C@@H](CC(C)C)C(=O)N[C@@H](C)C(=O)N[C@@H](CCC(N)=O)C(=O)N[C@@H](CO)C(=O)N1CCC[C@H]1C(=O)NCC(=O)O)C(C)C [Compound 290] | ≥ 7500 µg/mL |  | 
5 | CC[C@H](C)[C@H](NC(=O)[C@H](CO)NC(=O)[C@H](Cc1ccc(O)cc1)NC(=O)[C@H](CC(=O)O)NC(=O)[C@H](CO)NC(=O)[C@@H](NC(=O)[C@H](Cc1ccccc1)NC(=O)[C@@H](NC(=O)CNC(=O)[C@H](CCC(=O)O)NC(=O)C(C)(C)NC(=O)[C@@H](N)Cc1ccc(O)cc1)[C@@H](C)O)[C@@H](C)CC)C(=O)N[C@@H](C)C(=O)N[C@@H](CCCCNC(=O)CNC(=O)CNC(=O)CNC(=O)CNC(=O)CNC(=O)CCCCCCCCCCCCCCCCC(=O)O)C(=O)N[C@@H](CC(=O)O)C(=O)N[C@@H](CCCNC(=N)N)C(=O)N[C@@H](C)C(=O)N[C@@H](C)C(=O)N[C@@H](CCC(N)=O)C(=O)NC(C)(C)C(=O)N[C@@H](CC(=O)O)C(=O)N[C@@H](Cc1ccccc1)C(=O)N[C@H](C(=O)N[C@@H](CCC(=O)O)C(=O)N[C@@H](Cc1c[nH]c2ccccc12)C(=O)N[C@@H](CC(C)C)C(=O)N[C@@H](CC(C)C)C(=O)N[C@@H](C)C(=O)N[C@@H](CCC(N)=O)C(=O)N[C@@H](CCCNC(=N)N)C(=O)NCC(=O)O)C(C)C [Compound 291] | < 6000 µg/mL |  | 
6 | CC[C@H](C)[C@H](NC(=O)[C@H](CCCNC(=N)N)NC(=O)[C@H](CC(=O)O)NC(=O)[C@H](CCCCNC(=O)CNC(=O)CNC(=O)CNC(=O)CNC(=O)CNC(=O)CCCCCCCCCCCCCCCCC(=O)O)NC(=O)[C@H](C)NC(=O)[C@@H](NC(=O)[C@H](CO)NC(=O)[C@H](Cc1ccc(O)cc1)NC(=O)[C@H](CC(=O)O)NC(=O)[C@H](CO)NC(=O)[C@@H](NC(=O)[C@H](Cc1ccccc1)NC(=O)[C@@H](NC(=O)CNC(=O)[C@H](CCC(=O)O)NC(=O)C(C)(C)NC(=O)[C@H](Cc1ccc(O)cc1)NC)[C@@H](C)O)[C@@H](C)CC)[C@@H](C)CC)C(=O)N[C@@H](C)C(=O)N[C@@H](CCC(N)=O)C(=O)N[C@@H](CCC(N)=O)C(=O)N[C@@H](CC(N)=O)C(=O)N[C@@H](Cc1ccccc1)C(=O)N[C@H](C(=O)N[C@@H](CC(N)=O)C(=O)N[C@@H](Cc1c[nH]c2ccccc12)C(=O)N[C@@H](CC(C)C)C(=O)N[C@@H](CC(C)C)C(=O)N[C@@H](C)C(=O)N[C@@H](CCC(N)=O)C(=O)N[C@@H](CO)C(=O)N1CCC[C@H]1C(=O)N[C@@H](CO)C(=O)N[C@@H](CO)C(=O)NCC(=O)N[C@@H](C)C(=O)N1CCC[C@H]1C(=O)N1CCC[C@H]1C(=O)N1CCC[C@H]1C(=O)N[C@@H](CO)C(=O)O)C(C)C [Compound 292] |  |  | solubility (physchem; [3]): < 6000 µg/mL
7 | I: H-[NMeY][Aib]EGTFISDYSIALDR[Aib]AQ[Aib]KFVNWLLAQSPSSGAPPPS-OH / II: {C18 diacid-γGlu}-PAPAPGG (amide I:21-II:C) [Compound 104] |  |  | solubility (physchem; [3]): ≥ 60000 µg/mL; solubility (physchem; [4]): ≥ 15000 µg/mL
8 | I: H-[NMeY][Aib]EGTFISDYSIALDR[Aib]KQ[Aib]DFVNWLLAQSPSSGAPPPS-OH / II: {C18 diacid}-PAPAPGG (amide I:18-II:C) [Compound 102] |  |  | solubility (physchem; [3]): ≥ 60000 µg/mL; solubility (physchem; [4]): ≥ 15000 µg/mL
9 | B1 |  | 1 pM | Human GLP1R cAMP EC50, HEK293T [2]: 38900 pM
10 | B2 |  | 0.6 pM | Human GLP1R cAMP EC50, HEK293T [2]: 120000 pM
11 | B3 |  | 0.7 pM | 
12 | B4 |  | 0.3 pM | 
13 | B5 |  | 0.5 pM | Human GLP1R cAMP EC50, HEK293T [2]: 47900 pM
